Experimental data as given in PMC12120661, “Synthesis and Biological Evaluation of 4‑(4-Nitrophenyl)‑1H‑1,2,3-triazole Derivatives as Antitrypanosomal Agents” (ACS Omega, 2025).

Key:
[1] = test system: T. cruzi Tulahuen CL2 β-galactosidase strain; assay: Antitrypanosomal screening, anti-T. cruzi (trypomastigote) activity, CPRG photometric method; assay type: cell-based; conditions: Trypanosoma cruzi; Tulahuen CL2 β-galactosidase strain on MRC-5SV2; values in parentheses mean ± SEM of two experiments
Description: A preliminary assay was conducted to evaluate the analogs’ in vitro cytotoxicity and antitrypanosomatid activity against T. cruzi Tulahuen strain (Table ). […] However, the promising results of analog 16 encouraged us to conduct more in-depth studies on this compound.
Anti-parasitic assays were conducted following established protocols outlined in earlier literature. In brief, for assessing anti-T. cruzi activity, the Tulahuen CL2 β-galactosidase strain (nifurtimox-sensitive) was employed and maintained on MRC-5SV2 (human lung fibroblast). A total of 4 × 10^3 cells were infected with 4 × 10^4 parasites per well. The synthesized analogs were tested at concentrations ranging from 1.56 to 50.00 μM. Parasite burdens were evaluated after the addition of the substrate CPRG (chlorophenol red ß-D-galactopyranoside). The change in color was measured spectrophotometrically at 540 nm after 4 h of incubation at 37°C. In all assays, parasite growth was compared to untreated-infected controls (100% growth) and noninfected controls (0% growth). Results were expressed as the percentage of parasite reduction at different drug concentrations and used to calculate IC50 values from the dose–response curves.

[2] = Preliminary cytotoxicity assay, resazurin; assay type: cell-based; conditions: MRC-5SV2 lung fibroblast cells; human MRC-5 cell line, 3 days incubation
Description: MRC-5SV2 cell cytotoxicity was assessed following the methodology outlined in earlier literature. Briefly, cells at a concentration of 1.5 × 10^5 cells/mL were cultured with compound dilutions at 37 °C and 5% CO2. Cell growth was compared to untreated-control wells (100% cell growth) and medium-control wells (0% cell growth). After 3 days of incubation, cell viability was fluorometrically assessed following the addition of 50-μL resazurin per well. Fluorescence was measured after 4 h at 37 °C (λex 550 nm, λem 590 nm). The results were expressed as the percentage reduction in cell growth/viability compared to control wells, and an IC50 value was determined.

[3] = Cytotoxicity against primary mouse macrophages; assay type: cell-based; conditions: mouse, primary mouse macrophages (PMM)
From the text: 1 In Vitro Anti- T. cruzi (Trypomastigote) Activity and Cytotoxicity Assessment of Hit 1 Analogs ^a | column: PMM CC50 (μM)

[4] = test system: T. cruzi intracellular amastigotes (Colombian strain) in LLC-MK2 cells; assay: Antiamastigote activity, infection index, treatment after infection, LLC-MK2; assay type: cell-based, Trypanosoma cruzi; conditions: for selective index MK2: CC50/IC50, LLC-MK2, treatment after infection; for IC50: Trypanosoma cruzi, LLC-MK2, 48 h, infected LLC-MK2, 48 h treatment after infection; for selectivity indices: stated in text across LLC-MK2 and C2C12, treatment after infection
Description: (§1) Considering the dynamics of T. cruzi infection in humans, characterized by an increase in parasitic load through intracellular replication of amastigote forms in various cell types, we evaluated the action of the compounds in LLC-MK2 (epithelial cells) and C2C12 (myoblasts) using an in vitro infection model.
(§2) The antiamastigote activity was assessed by calculating the infection index, defined as the percentage of infected cells multiplied by the mean number of amastigotes per cell. Noninfected control cells were subjected to identical treatment conditions to evaluate the cytotoxicity of the compounds (CC50). This comprehensive approach allowed for the simultaneous assessment of antiparasitic efficacy and compound-induced cytotoxicity, offering valuable insights into their therapeutic potential.
(§3) In the infection plate each well was added 50 μL of cold methanol for cell fixation. The plate was kept at −20 °C for 1 h. After this period, the wells were blocked with 50 μL of PBS 1X-Saponin 0.1 + 10% rabbit serum for 10 min at room temperature. Following, the wells were washed four times with PBS 1X-Saponin 0.1% and 50 μL of the same solution was added to each well, incubating for 20 min at room temperature. Subsequently, 50 μL of PBS 1X-Saponin 0.1% + anti-T. cruzi antibody (from serum of infected patients) at a 1:10 dilution was added, and the plate was incubated for 1 h at room temperature. The wells were then washed four times with PBS 1X-Saponin 0.1%, and 50 μL of PBS 1X-Saponin 0.1% + antihuman IgG-FITC at a 1:200 dilution was added. The plate was incubated wrapped in aluminum foil for 30 min. After incubation, the plate was washed four times with PBS 1X-Saponin 0.1%, and 50 μL of PBS 1X was added to all wells after the final wash. For nuclear staining, the plate, already stained with FITC, was washed three times with PBS 1X, and 200 μL of PBS 1X + 1 μL of iodide per well was added. After staining, the wells were washed again, and 100 μL of PBS 1X was added before imaging.
(§4) The plate was analyzed in the EVOS fluorescence microscope for image acquisition and fluorescence identification, in which the anti-IgG-FITC stains parasite′s membrane in green and iodide stains nuclei in red. On each condition of treatment, 200 cells of 3 wells were evaluated as to the number of infected cells and the number of parasites per cell for calculating the index of infection the IC50 were calculated by Nonlinear regression curves (log[inhibitor] vs normalized response). Selective index was calculated by dividing CC50 per IC50.

[5] = test system: T. cruzi intracellular amastigotes (Colombian strain) in C2C12 cells; assay: Antiamastigote activity, infection index, treatment after infection, C2C12; assay type: cell-based, Trypanosoma cruzi; conditions: for selective index C2C12: CC50/IC50, C2C12, treatment after infection; for IC50: Trypanosoma cruzi, infected C2C12, 48 h treatment after infection
Description: as §1, §2, §3, §4

[6] = Cellular viability (MTT), noninfected LLC-MK2; assay type: cell-based; conditions: rhesus monkey, noninfected LLC-MK2 epithelial cells; noninfected LLC-MK2, Table 2 (treatment after infection); read-out: CC50 non infected MK2
Description: as §2
(§5) Following 24 h of treatment, 10 μL of 5 mg/mL of MTT (3-(4,5-dimethylthiazol-2-yl)-2,5-diphenyltetrazolium bromide) was added per well, and absorbance was evaluated in the Eon Microplate Spectrophotometer Reader (BioTek) at 570–690 nm. CC50 were calculated by Nonlinear regression curves (log[inhibitor] vs normalized response).

[7] = test system: LLC-MK2 cells; assay: Cellular viability (MTT), noninfected LLC-MK2; assay type: cell-based; conditions: noninfected LLC-MK2, Table 3 (treatment previously to infection); read-out: CC50 non infected MK2
Description: as §2, §5

[8] = Cellular viability (MTT), noninfected C2C12; assay type: cell-based, murine; conditions: mouse, noninfected C2C12 myoblast cells; noninfected C2C12, Table 2 (treatment after infection); read-out: CC50 non infected C2C12
Description: as §2
(§6) The LLC-MK2 (ATCC CCL-7) cell line of epithelial origin, and C2C12 (ATCC CRL-1772) myoblast cells, derived from murine myoblasts, were maintained in Roswell Park Memorial Institute-RPMI 1640 medium supplemented with L-glutamine, 25 mM HEPES (Corning), 10% (v/v) fetal bovine serum (FBS), and gentamicin (1 μL/mL). […] Once the cells reached 80% confluence, were detached using Trypsin-EDTA and prepared in the subsequent experiments.
as §5

[9] = test system: C2C12 cells; assay: Cellular viability (MTT), noninfected C2C12; assay type: cell-based, murine; conditions: noninfected C2C12, Table 3 (treatment previously to infection); read-out: CC50 non infected C2C12
Description: as §2, §6, §5

[10] = test system: T. cruzi amastigotes (Colombian strain) in pre-exposed LLC-MK2 cells; assay: Antiamastigote activity in pretreated (pre-exposed) LLC-MK2 cells; assay type: cell-based, Trypanosoma cruzi; conditions: for selective index MK2: CC50/IC50, LLC-MK2 treated previously to infection; for IC50: Trypanosoma cruzi, LLC-MK2 treated previously to infection
Description: (§7) After 24 h, the culture medium was removed and replaced with fresh medium containing cell-derived trypomastigotes (MOI 20:1, Colombian strain) overnight.
as §3, §4

[11] = test system: T. cruzi amastigotes (Colombian strain) in pre-exposed C2C12 cells; assay: Antiamastigote activity in pretreated (pre-exposed) C2C12 cells; assay type: cell-based, Trypanosoma cruzi; conditions: for selective index C2C12: CC50/IC50, C2C12 treated previously to infection; for IC50: Trypanosoma cruzi, C2C12 treated previously to infection
Description: as §7, §3, §4

[12] = Solubility observations; conditions: 2.000 to 0.062 mM, 0.5% DMSO
[13] = test system: T. cruzi nitroreductase (TcNTR72); assay: T. cruzi nitroreductase activity assay (NADH oxidation); conditions: 50 μM NADH, 25 °C; for Kobs (12.5 μM): compound 12.5 μM; for Kobs (25 μM): compound 25 μM; for Kobs (50 μM): compound 50 μM; for Kobs (100 μM): compound 100 μM
Description: TcNTR72 was expressed, purified, and its activity was tested following previously described protocol. […] This mixture was incubated at room temperature for 5 min. […] All assays were performed in triplicate for each measurement and for each concentration. Benznidazole was used as a control.

[14] = biological target: T1, Recombinant trans-sialidase from T. cruzi (TcTS) (Trypanosoma cruzi, UniProt Q26966); assay: Continuous fluorimetric TcTS inhibition (MuNANA hydrolysis); assay type: biochemical
T1 construct: A truncated recombinant TcTs, containing the enzyme’s catalytic N-terminal domain, was used; made in house
T1 sequence (Q26966 entry or part of it): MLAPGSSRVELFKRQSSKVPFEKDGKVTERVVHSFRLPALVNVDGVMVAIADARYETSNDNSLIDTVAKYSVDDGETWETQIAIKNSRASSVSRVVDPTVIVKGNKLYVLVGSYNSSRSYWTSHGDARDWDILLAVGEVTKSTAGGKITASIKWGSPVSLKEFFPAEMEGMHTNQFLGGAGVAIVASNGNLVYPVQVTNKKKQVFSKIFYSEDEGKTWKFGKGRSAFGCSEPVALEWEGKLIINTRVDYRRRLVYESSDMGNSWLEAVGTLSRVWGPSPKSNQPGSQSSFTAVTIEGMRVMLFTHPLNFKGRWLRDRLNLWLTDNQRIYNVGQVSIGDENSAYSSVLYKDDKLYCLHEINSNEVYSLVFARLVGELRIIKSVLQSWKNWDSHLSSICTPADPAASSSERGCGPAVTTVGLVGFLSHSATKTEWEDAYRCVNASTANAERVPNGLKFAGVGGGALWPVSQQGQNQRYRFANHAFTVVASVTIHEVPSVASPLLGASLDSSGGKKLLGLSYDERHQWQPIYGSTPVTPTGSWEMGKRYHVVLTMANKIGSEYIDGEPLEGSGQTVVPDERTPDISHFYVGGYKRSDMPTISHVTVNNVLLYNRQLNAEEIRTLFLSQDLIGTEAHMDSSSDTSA
Description: Although the main reaction catalyzed by TcTS involves the transfer of host sialic acids to β-galactose acceptors found in parasite surface mucins, a residual hydrolase activity is also present and was utilized to screen a small library of TcTS inhibitors.
A truncated recombinant TcTs, containing the enzyme’s catalytic N-terminal domain, was used. The production and purification of TcTs were performed following previously described protocols. The continuous fluorimetric TcTS assay was conducted in 96-well plates containing phosphate buffer solution at pH 7.4 (25 μL), recombinant enzyme solution (25 μL) and inhibitor solution (25 μL). […] The enzyme activity was measured by calculating the slope of the curve for each concentration of the test compound. Pyridoxal phosphate was used as the inhibition control at a concentration of 1 mM. The IC50 value was determined using the log(inhibitor) vs normalized response–variable slope model in GraphPad Prism version 10.0.0 for Windows, GraphPad Software, Boston, Massachusetts (www.graphpad.com).

[15] = test system: trypomastigotes forms of T. cruzi Tulahuen strain (LacZ); design: method as in de Andrade et al., 2015; conditions: previous work of the group; ref de Andrade et al., 2015; read-out: IC50 against trypomastigotes forms of T. cruzi Tulahuen strain (LacZ); cited from earlier work
[16] = previous work of the group; cited from earlier work

Structure (SMILES) | selective index MK2 [4] | IC50 [4] [nM] | selectivity indices [4] | selective index C2C12 [5] | IC50 [5] [nM] | CC50 at 24 h [6] [µM] | CC50 [7] [µM] | CC50 at 24 h [8] [µM] | CC50 [9] [µM] | selective index MK2 [10] | IC50 [10] [nM] | selective index C2C12 [11] | IC50 [11] [nM] | Kobs (12.5 μM) [13] [s^–1] | Kobs (25 μM) [13] [s^–1] | Kobs (50 μM) [13] [s^–1] | Kobs (100 μM) [13] [s^–1] | other results
CC(=O)OC[C@H]1O[C@@H](n2cc(-c3ccc([N+](=O)[O-])cc3)nn2)[C@H](OC(C)=O)[C@@H](OC(C)=O)[C@H]1OC(C)=O [Compound 16, (2R,3S,4S,5R,6R)-2-(Acetoxymethyl)-6-(4-(4-nitrophenyl)-1H-1,2,3-triazol-1-yl)tetrahydro-2H-pyran-3,4,5-triyl Triacetate] | 484.3 | 160 ± 20 | exceeding 400 | 621.1 | 130 ± 10 | > 80 | > 80 | > 80 | > 80 | 124.9 | 600 ± 200 | 141.5 | 560 ± 90 | 0.02 ± 0.02 | 0.06 ± 0.01 | 0.07 ± 0.01 | 0.07 ± 0.01 | IC50 [1]: 6 µM; CC50 at 3 days [2]: > 50 µM; CC50 [3]: > 50 µM; solubility in the TcTS assay medium [12]: low solubility in the medium
O=[N+]([O-])c1ccc(-c2cn([C@@H]3O[C@H](CO)[C@H](O)[C@H](O)[C@H]3O)nn2)cc1 [Compound 19, (2R,3R,4S,5R,6R)-2-(Hydroxymethyl)-6-(4-(4-nitrophenyl)-1H-1,2,3-triazol-1-yl)tetrahydro-2H-pyran-3,4,5-triol] | 782.8 | 100 ± 40 | exceeding 400 | 677.4 | 110 ± 20 | > 80 | > 80 | > 80 | > 80 | 39.4 | 2000 ± 200 | 115.6 | 700 ± 300 | 0.03 ± 0.01 | 0.03 ± 0.01 | 0.04 ± 0.02 | 0.04 ± 0.01 | IC50 [14]: 1.1 ± 0.1 mM
O=C(Cn1cc(-c2ccc([N+](=O)[O-])cc2)nn1)NCc1ccccc1 [hit 1] |  |  |  |  |  |  |  |  |  |  |  |  |  |  |  |  |  | IC50 [15]: 7 µM; solubility in water [16]: low solubility in water
